# Data: US10285969B2, “Mangiferin-6-O-berberine salt and preparation method and use thereof” (CHANGZHOU DEZE MEDICAL SCIENCE CO., LTD, priority 2015, dated 2019)
# How the values were obtained:
# [1] = Physical and chemical properties: solubility in solvents; assay type: physicochemical
# Source text: The chemical structure of the mangiferin-6-O-berberine salt is as follows: […]
# [2] = Solubility in the hydrochloric acid solution of pH 1; assay type: physicochemical
# Protocol: (§1) Sample A: Mangiferin-6-O-berberine salt dihydrate
# (§2) Sample B: Mangiferin-berberine salt yielded using the method as disclosed in WO2010/145192A1.
# 2. Instrument: PHS-3C pH meter (Shanghai Kangyi)
# Take pure water; add hydrochloric acid to adjust pH to 1 (25° C.±2° C.). Take the water 50 ml to different triangular flask; weigh up accurately 200 mg sample A and sample B which have been ground into powders and put them into the triangular flasks separately, shake and observe dissolved phenomena.
# Take the water 50 ml to different triangular flasks; weigh up accurately sample A 400 mg and 600 mg which have been ground into powders and put the powders into the triangular flasks separately, shake and observe dissolving phenomena.
# [3] = Stability under a high-humidity environment (moisture absorption weight gain); assay type: physicochemical
# Protocol: as §1, §2
# 2. Instrument: One ten-thousandth electronic balance (Sartorius, Germany)
# Weigh up accurately appropriate amount sample A in 3 glass gardens and sample B in 3 glass gardens separately; put the samples in a drug stability chamber with the condition being set to: 25° C./90% RH±5% RH and storage for 10 days. Weigh the samples accurately on the fifth day and tenth day; record the results of weighing and calculate weight percentage of moisture absorption.
# AMPK = assay: Activation of AMPK in L6 cells (Western blot of phospho-AMPK and phospho-ACC); assay type: cell-based, rat; settings: 1.25-5 μmol/L, 3 hours, dose-dependent
# Protocol: The mangiferin-6-O-berberine salt dihydrate yielded using the method as disclosed in the above examples dissolves in DMSO. Before use, the mangiferin-6-O-berberine salt dihydrate is diluted by a culture medium or HBS. The ultimate concentration of DMSO is no more than 0.2%.
# The rat L6 cell line is purchased from the ATCC. HG-DMEM is purchased GIBCO™. Fetal bovine serum (FBS) is purchased from Hyclone. Anti-AMPK, anti-ACC, antiphospho-AMPK (Thr172), antiphospho-ACC (ser79) polyclonal antibodies are purchased from Cell Signal Technology.
# L6 cells were grown in HG-DMEM containing 10% (v/v) FBS, 100 U/ml penicillin and 100 U/ml streptomycin in a humidified atmosphere of 5% CO2 at 37° C. When the cells covered 60%, the medium was switched to HG-DMEM with 2% FBS and the culture medium was replaced every two days until the cells differentiation reached 90%.
# Cells in 6-well plates were starved in serum-free HG-DMEM, and then different concentration gradient samples were added into serum-free HG-DMEM; the concentration of DMSO is 0.2%. The samples incubated for 3 hours in the cells. […]
# Samples were electrophoresed on 10% SDS-polyacrylamide gels, and transferred to […] membranes under 100V and 1-2 hours in the transmembrane instrument. Protein in the gel was transferred to nitrocellulose membrane under the state of half dry, and the band was determined by Ponceau S (Ponceau S). […]
# [4] = test system: non-alcoholic fatty liver combined with type 2 diabetes mellitus; assay: Improvement of metabolic disorder indices in patients, oral tablets for six months; assay type: in vivo, human; settings: after six months, tablets 75 mg two times per day oral
# Protocol: The patients according to the criteria of diagnosing non-alcoholic fatty liver combined with type 2 diabetes mellitus oral administrated mangiferin-6-O-berberine salt tablets 75 mg (for the preparation method, reference may be made to Example 6) two times per day.
# [5] = Pharmacokinetic comparison after single intragastric administration to SD rats; assay type: in vivo
# Protocol: as §1
# Sample B: Mangiferin-berberine salt yielded using the method disclosed in WO2010/145192A1.
# A single intragastric administration of sample of A or B was given to SD rats at the dosage of 100 mg/kg and blood was sampled from jugular vein at 0, 0.083, 0.25, 0.5, 1, 1.5, 2, 3, 4, 5, 6, 7, 8, 12 and 24 h.
# Preparation of the mangiferin reference solution: Mangiferin reference was weighed accurately and put into a 25 ml volumetric flask; methanol was added to make mangiferin dissolve, diluted to graduation. The mangiferin reference mother liquor is yielded for reserve. An appropriate amount of mangiferin reference mother liquor was taken out accurately and diluted to prepare the mangiferin reference solutions having a concentration of 2, 5, 10, 50, 100, 200 ng/ml.
# Preparation of the berberine hydrochloride reference solution: The berberine hydrochloride reference was weighed accurately and put into a 25 ml volumetric flask; methanol was added to make the berberine hydrochloride dissolve, and dilute to graduation. The berberine hydrochloride reference mother liquor was yielded for reserve. An appropriate amount of berberine hydrochloride reference mother liquor was taken out accurately and diluted to prepare reference solution whose berberine concentration is 0.2, 0.5, 2, 10, 20, 50 ng/ml.
# Preparation of the internal standard solution: Glibenclamide was weighed accurately and put into a 25 ml volumetric flask; acetonitrile was added to make glibenclamide dissolve, and dilute to graduation. The internal standard solution of glibenclamide was yielded, having a concentration of 50 ng/ml.
# Blood sample processing method: Rat blood was put in a heparin anticoagulant centrifuge tube and centrifuged for 10 minutes at 6000 rpm, and the plasma was taken for reserve at −20° C. […]
# The pharmacokinetic parameters are calculated with a non compartmental model in Pharsight Phoenix 6.3.
# [6] = hydrochloric acid solution of pH 1
# [7] = single intragastric 100 mg/kg, 0-24 h, n = 3, mean ± SD
smiles,measurement,setting,value
COc1ccc2cc3[n+](cc2c1OC)CCc1cc2c(cc1-3)OCO2.O=c1c2cc(O)c([O-])cc2oc2cc(O)c([C@@H]3O[C@H](CO)[C@@H](O)[C@H](O)[C@H]3O)c(O)c12 [Mangiferin-6-O-berberine salt],solubility in dilute hydrochloric acid,[1]; dilute hydrochloric acid,slightly soluble
same,solubility in methanol,[1]; methanol,slightly soluble
same,solubility in water,[1]; water,almost insoluble
same,solubility relative to the mangiferin-berberine salt disclosed in WO2010/145192A1,[2]; [6],three times
same,stability (of the solution) compared with the mangiferin-berberine salt disclosed in WO2010/145192A1,[2]; [6],much better
same,solubility in the hydrochloric acid solution of pH 1,"[2]; pH 1, 25° C.±2° C.",12 mg/ml
same,weight percentage of moisture absorption (hygroscopicity) compared with the mangiferin-berberine salt disclosed in WO2010/145192A1,[3],much smaller
same,phosphorylation of ACC,AMPK,enhances significantly
same,phosphorylation of AMPK,AMPK,enhances significantly
same,ALT,"[4]; n = 8, mean ± SD, base line 136.50",51.85 U/L
same,APRI index,"[4]; n = 8, base line 0.447",0.203
same,Urine microalbumin (1^+ is seen as 1),"[4]; n = 8, base line 0.60",0
same,TG,"[4]; n = 8, base line 3.56",1.41 mmol/L
same,Atherogenic index (AI),"[4]; n = 8, base line 4.12",3.10
same,HbA1C,"[4]; n = 8, base line 7.18",5.80%
same,Weight,"[4]; n = 8, base line 73.35",62.34 kg
same,AST,"[4]; n = 8, base line 83.32",39.20 U/L
same,Diastolic pressure,"[4]; n = 8, base line 94.79",76.39 mmHg
same,Systolic pressure,"[4]; n = 8, base line 153.77",125.86 mmHg
same,INS,"[4]; n = 8, base line 197.99",56.08 pmol/L
same,Liver color Doppler ultrasound,"[4]; n = 8, base line fatty liver",normal
same,ISI,"[4]; n = 8, base line −7.12",−5.80
same,AUC relative to that of the mangiferin-berberine salt,[5]; oral administration 100 mg/kg,2 times
same,AUC0-t of Berberine in plasma,[5]; [7],669.72 ± 312.83 ng·h/mL
same,AUC0-t of Mangiferin in plasma,[5]; [7],1831.11 ± 510.25 ng·h/mL
